Measured values as given in publication PMC7866122, “Development of MTH1-Binding Nucleotide Analogs Based on 7,8-Dihalogenated 7-Deaza-dG Derivatives” (International Journal of Molecular Sciences, 2021).
“Also recorded” adds a separate entry of the source. Like-named read-outs stand apart in the source and are kept apart here.

Tests used:
MTH1 [1] = molecular target: T1, MTH1 (Homo sapiens, UniProt P36639); design: method as in earlier work; conditions: inhibition of the hydrolytic activity of MTH1; ChemBioChem 17, 566 (2016); cited from earlier work
MTH1 [2] = molecular target: T1, MTH1; experiment: Inhibition of the MTH1 hydrolysis of 8-oxo-dGTP (HPLC); format: biochemical; conditions: 50 μM 8-oxo-dGTP, 5 nM MTH1, pH 7.5, 37 °C, 10 min
Description: We examined whether the nucleoside diols, nucleoside monophosphate (NMP), and nucleoside triphosphate (NTP) derivatives inhibit the MTH1 hydrolysis of 8-oxo-dGTP. MTH1 and 8-oxo-dGTP were mixed with various concentrations of synthesized derivatives, and this mixture was incubated and analyzed by HPLC. In the case of diol compounds, 7,8-dichloro-7-deaza-dG (1), 7,8-dibromo-7-deaza-dG (2), and 7,8-diiodo-7-deaza-dG (3) exerted inhibitory effects on the hydrolytic activity of MHT1 at a micromolar level (Table 1, Entries 1–3). Their IC50 values were better than that of 8-iodo-7-deaza-dG (4) (Table 1, Entry 4).
Twenty microliters of MTH1 buffer (100 mM Tris-HCl, pH 7.5, 20 mM MgCl2, 200 mM NaCl, […] BSA, 40 mM DTT, and 50% glycerol), 10 μL (500 μM) of 8-oxo-dGTP, 55 μL of MilliQ, and 10 μL of various concentrations of substituted 7-deaza-dG derivatives were pre-incubated at 37 °C for 10 min (concentrations used: 7-deaza-dG, 7,8-dihalogenated-7-deaza-dG were 0, 0.5, 1, 2.5, 5, 10, 25, 50, 100, and 250 μM in 1% DMSO; 8-CF3-7-deazadGMP (3) was 0, 0.05, 0.1, 0.25, 0.5, 1, 2.5, 5, 10, and 25 μM; 7,8-dihalogenated-7-deaza-dGMP and –dGTP were 0, 0.0125, 0.025, 0.05, 0.1, 0.25, 0.5, 1, and 2.5 μM). Five microliters of MTH1 (0.1 pmol/μL in MTH1 buffer) was added, and the reaction mixture was incubated at 37 °C for 10 min. The resulting solutions were quenched with 100 μL of stop solution (5 mM EDTA). All samples were loaded on ice before the analysis with HPLC (HPLC conditions: A: 0.1 M TEAA, B: MeCN; Flow rate: 1.0 mL/min; Shiseido MG1 (4.6 × 250 mm); UV detector: 254 nm; 35 °C). The relative hydrolysis ratio values (ratio with inhibitor/ratio without inhibitor) were plotted at each inhibitor concentration. IC50 values were assessed using images.

MTH1 [3] = molecular target: T1, MTH1; experiment: Steady-state kinetics of MTH1 hydrolysis of 8-oxo-dGTP (Lineweaver-Burk plot); format: biochemical; conditions: 2 nM MTH1, 37 °C
Source text: We made a Lineweaver-Burk plot to calculate kinetic parameters (KM and kcat) in order to reveal the types of inhibition modes for MTH1. […] In the presence of new 7-deaza-dG monophosphate and triphosphate, kcat values were only slightly altered (Entries 2–7). On the other hand, all KM values increased (Entries 2–7).

MTH1 [4] = molecular target: T1, MTH1; experiment: Hydrolysis of triphosphate derivatives by MTH1 (HPLC time course); format: biochemical; conditions: 50 μM dNTP, 5 nM MTH1, 37 °C, various times
Description: Since the shapes of synthesized triphosphate derivatives were similar to 8-oxo-dGTP, we investigated whether these triphosphate derivatives are hydrolyzed by MTH1. MTH1 and these triphosphate derivatives were mixed and incubated at 37 °C for various times, and hydrolysis reactions were analyzed by HPLC. […] However, in the case of 7,8-dihalogenated triphosphate derivatives, the peak of the corresponding monophosphate was not detected in HPLC following the treatment with MTH1 (Figure 2. 9: purple, 10: red and 11: blue lines).
The reaction mixture was pre-incubated at 37 °C for 10 min before the addition of MTH1 to a final volume of 100 L (final concentration: 20 mM Tris-HCl, pH 7.5, 4 mM MgCl2, 40 mM NaCl, […] bovine serum albumin (BSA), 8 mM dithiothreitol (DTT), 10% glycerol; 0.5 pmol MTH1; 50 μM 7,8-dihalogenated-7-deaza-dGTP […], 8-CF3-7-deaza-dGTP (4), and 8-oxo-dGTP). The resulting solutions were incubated at 37 °C for various times and quenched with 100 μL of stop solution (5 mM EDTA). All samples were loaded on ice before the analysis with HPLC (HPLC conditions: A: 0.1 M TEAA, B: CH3CN; Flow rate: 1.0 mL/min; Shiseido MG1 (4.6 × 250 mm); UV detector: 254 nm; column oven: 35 °C).
Figure 2 Time courses of the hydrolysis of 8-oxo-dGTP, 7-deaza-dGTP, and 7,8-dihalogenated-7-deaza-dGTP (9, 10, and 11) by MTH1. Reaction conditions: 20 mM Tris-HCl pH 7.5, 4 mM MgCl2, 40 mM NaCl, 80 μg/mL bovine serum albumin (BSA), 8 mM dithiothreitol (DTT), 10% glycerol; 50 μM 8-oxo-dGTP, 5 nM MTH1; 50 μM dNTPs; incubated at 37 °C for various times. Hydrolysis reactions were analyzed by HPLC, and the cleavage rate was calculated from the peak area.

MTH1 [5] = molecular target: T1, MTH1; design: method as in doi:10.1016/j.tet.2014.01.047, PMID 26879218, PMID 27372838; conditions: earlier work of the authors; cited from earlier work
[6] = 8-oxo-dGTP hydrolysis in the presence of inhibitor, 10–250 μM 8-oxo-dGTP
[7] = substrate 8-oxo-dGTP, in the absence of inhibitors

Row | SMILES | IC50 (MTH1 [2]) | kcat (MTH1 [3]; [6]) | Ki (MTH1 [3]; 10–250 μM 8-oxo-dGTP) | Hydrolysis to the monophosphate by MTH1 (MTH1 [4]) | also measured
1 | Nc1nc2c(cc(I)n2[C@H]2C[C@H](O)[C@@H](CO)O2)c(=O)[nH]1 [Compound 4, 8-iodo-7-deaza-dG] | – | – | – | – | IC50 (MTH1 [1]): 44.8 µM
2 | CNc1cc(-c2cccc(Cl)c2Cl)nc(N)n1 [TH287, reference compound] | – | – | – | – | IC50 (MTH1 [1]): 0.01 µM
3 | Nc1nc2c(c(Br)c(Br)n2[C@H]2C[C@H](O)[C@@H](COP(=O)(O)OP(=O)(O)OP(=O)(O)O)O2)c(=O)[nH]1 [Compound 10, 7,8-di-Bromo-7-deaza-2′-deoxy-guanosine triphosphate] | 0.11 µM | 9.4 s⁻¹ | 0.0242 µM | not detected; also recorded: not hydrolyzed | –
4 | Nc1nc2c(c(I)c(I)n2[C@H]2C[C@H](O)[C@@H](COP(=O)(O)O)O2)c(=O)[nH]1 [Compound 7, 7,8-di-Iodo-7-deaza-2′-deoxy-guanosine monophosphate] | 0.13 µM | 10.7 s⁻¹ | – | not hydrolyzed | –
5 | Nc1nc2c(cc(I)n2[C@H]2C[C@H](O)[C@@H](COP(=O)(O)OP(=O)(O)OP(=O)(O)O)O2)c(=O)[nH]1 [Compound 12, 8-iodo-7-deaza-dGTP] | – | – | – | – | IC50 (MTH1 [1]): 0.42 µM; Ki (MTH1 [5]): 0.0617 µM
6 | CC(=O)OC[C@H]1O[C@@H](n2ccc3c(=O)[nH]c(N)nc32)C[C@@H]1OC(C)=O [Compound 13, 3′,5′-di-O-Acetyl-7-deaza-2′-deoxyguanosine] | – | – | – | not hydrolyzed | –
7 | Nc1nc2c(c(Br)c(Br)n2[C@H]2C[C@H](O)[C@@H](COP(=O)(O)O)O2)c(=O)[nH]1 [Compound 6, 7,8-di-Bromo-7-deaza-2′-deoxy-guanosine monophosphate] | 0.26 µM | 9.1 s⁻¹ | 0.0279 µM | – | –
8 | Nc1nc2c(ccn2[C@H]2C[C@H](O)[C@@H](COP(=O)(O)OP(=O)(O)OP(=O)(O)O)O2)c(=O)[nH]1 [Compound 7-deaza-dGTP, 7-deaza-dGTP, reference compound] | – | – | – | hydrolyzed, but more slowly than 8-oxo-dGTP | –
9 | Nc1nc2c(c(Cl)c(Cl)n2[C@H]2C[C@H](O)[C@@H](COP(=O)(O)OP(=O)(O)OP(=O)(O)O)O2)c(=O)[nH]1 [Compound 9, 7,8-di-Chloro-7-deaza-2′-deoxy-guanosine triphosphate] | 0.16 µM | 9.3 s⁻¹ | 0.0281 µM | not detected | –

More lines, main results first:

Row | IC50 (MTH1 [2]) | kcat (MTH1 [3]; [6]) | Ki (MTH1 [3]; 10–250 μM 8-oxo-dGTP) | Hydrolysis to the monophosphate by MTH1 (MTH1 [4]) | SMILES | also measured
10 | 22.5 µM | – | – | – | Nc1nc2c(c(Cl)c(Cl)n2[C@H]2C[C@H](O)[C@@H](CO)O2)c(=O)[nH]1 [Compound 1, 7,8-di-Chloro-7-deaza-2′-deoxy-guanosine] | –
11 | 0.13 µM | 9.7 s⁻¹ | 0.037 µM | – | Nc1nc2c(c(Cl)c(Cl)n2[C@H]2C[C@H](O)[C@@H](COP(=O)(O)O)O2)c(=O)[nH]1 [Compound 5, 7,8-di-Chloro-7-deaza-2′-deoxy-guanosine monophosphate] | –
12 | 0.13 µM | 11.9 s⁻¹ | 0.0304 µM | not detected | Nc1nc2c(c(I)c(I)n2[C@H]2C[C@H](O)[C@@H](COP(=O)(O)OP(=O)(O)OP(=O)(O)O)O2)c(=O)[nH]1 [Compound 11, 7,8-di-Iodo-7-deaza-2′-deoxy-guanosine triphosphate] | –
13 | 10.7 µM | – | – | – | Nc1nc2c(c(Br)c(Br)n2[C@H]2C[C@H](O)[C@@H](CO)O2)c(=O)[nH]1 [Compound 2, 7,8-di-Bromo-7-deaza-2′-deoxy-guanosine] | –
14 | – | – | – | rapidly hydrolyzed | NC1=NC(=O)C2=NC(=O)N([C@H]3C[C@H](O)[C@@H](COP(=O)(O)OP(=O)(O)OP(=O)(O)O)O3)C2=N1 [Compound 8-oxo-dGTP, 8-oxo-2′-deoxyguanosine-5′-triphosphate, reference compound] | Km (MTH1 [3]; [7]): 17.6 µM; kcat (MTH1 [3]; [7]): 10.6 s⁻¹
15 | 17 µM | – | – | – | Nc1nc2c(c(I)c(I)n2[C@H]2C[C@H](O)[C@@H](CO)O2)c(=O)[nH]1 [Compound 3, 7,8-di-Iodo-7-deaza-2′-deoxy-guanosine] | –
16 | 0.84 µM | – | – | – | Nc1nc2c(cc(I)n2[C@H]2C[C@H](O)[C@@H](COP(=O)(O)O)O2)c(=O)[nH]1 [Compound 8, 8-Iodo-7-deaza-2′-deoxy-guanosine monophosphate] | –
